Data set [1] relates to Mus musculus. Kind of data set: Immuno-adjuvant activity in OVA immunized C57BL/6J mouse model assessed as increase in anti-OVA IgG1 antibody at 10 ug, sc administered on day 0 and as booster dose on day 21 and measured after 42 days by ELISA. Type of data set: functional, organism-based. The note with it: dose 10.0 µg, time 42.0 day.
Data set [2] deals with Mus musculus. The experiment in a line: Immuno-adjuvant activity in OVA immunized C57BL/6J mouse model assessed as increase in anti-OVA IgG2b antibody at 10 ug, sc administered on day 0 and as booster dose on day 21 and measured after 42 days by ELISA. The class given is functional, organism-based. The note with it: dose 10.0 µg, time 42.0 day. Background: ELISA stands for enzyme-linked immunosorbent assay.

The test system of data set [3] is Mus musculus. The experiment in a line: Immuno-adjuvant activity in OVA immunized C57BL/6J mouse model assessed as increase in anti-OVA IgG2c antibody at 10 ug, sc administered on day 0 and as booster dose on day 21 and measured after 42 days by ELISA. Type of data set: functional, organism-based. The note with it: dose 10.0 µg, time 42.0 day.
Data set [4] has as its system Mus musculus. Kind of data set: Immuno-adjuvant activity in OVA immunized C57BL/6J mouse model assessed as anti-OVA […] antibody production at 10 ug, sc administered on day 0 and as booster dose on day 21 and measured after 42 days by ELISA. The class given is functional, organism-based. The note with it: dose 10.0 µg, time 42.0 day.
The next data set concerns HEK-Blue hTLR4. The experiment in a line: Agonist activity at human TLR4 in HEK-Blue hTLR4 cells at 100 ng/ml incubated for 18 hrs by SEAP reporter gene based Quanti-blue assay. The note with it: filed as agonist. Type of data set: cell-based. For orientation: In a reporter assay the amount or activity of a reporter protein is the signal.
Data set [5] deals with Toll-like receptor 4 (Homo sapiens) (UniProt O00206). The experiment in a line: Agonist activity at human TLR4 in HEK-Blue hTLR4 cells at 0.1 to 25 uM incubated for 18 hrs by SEAP reporter gene based Quanti-blue assay. Type of data set: cell-based. The note with it: filed as agonist, dose 0.1-25 µM.
Sequence of Toll-like receptor 4 (Homo sapiens) (O00206 whole entry): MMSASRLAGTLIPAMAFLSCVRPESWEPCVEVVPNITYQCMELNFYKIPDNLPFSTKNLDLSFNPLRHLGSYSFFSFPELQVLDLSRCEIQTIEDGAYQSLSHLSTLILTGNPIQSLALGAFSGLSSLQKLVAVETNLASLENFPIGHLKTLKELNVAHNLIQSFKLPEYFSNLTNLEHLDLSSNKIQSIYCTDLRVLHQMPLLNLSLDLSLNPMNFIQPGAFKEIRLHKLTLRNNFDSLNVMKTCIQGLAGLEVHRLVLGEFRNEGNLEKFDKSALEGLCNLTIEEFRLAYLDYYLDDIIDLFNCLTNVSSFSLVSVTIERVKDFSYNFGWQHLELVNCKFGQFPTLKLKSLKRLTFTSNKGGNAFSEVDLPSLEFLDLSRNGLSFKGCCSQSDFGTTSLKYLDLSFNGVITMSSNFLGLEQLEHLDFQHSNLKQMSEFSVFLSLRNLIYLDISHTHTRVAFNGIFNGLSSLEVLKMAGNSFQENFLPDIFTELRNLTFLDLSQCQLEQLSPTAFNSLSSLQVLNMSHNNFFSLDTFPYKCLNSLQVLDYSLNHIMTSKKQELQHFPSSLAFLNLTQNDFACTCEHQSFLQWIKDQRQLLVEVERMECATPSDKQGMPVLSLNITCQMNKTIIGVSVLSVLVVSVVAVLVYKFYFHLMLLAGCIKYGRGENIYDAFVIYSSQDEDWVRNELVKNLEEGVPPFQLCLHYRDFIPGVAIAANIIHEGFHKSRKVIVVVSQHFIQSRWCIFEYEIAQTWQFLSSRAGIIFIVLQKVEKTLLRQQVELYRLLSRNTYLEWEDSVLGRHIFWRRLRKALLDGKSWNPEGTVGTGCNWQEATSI
The nature of data set [6]: Cytotoxicity against PMA-differentiated human THP1-Xblue cells assessed as reduction in cell viability at 0.1 to 25 uM incubated for 18 hrs by MTT assay. Type of data set: toxicity, cell-based. As to conditions: dose 0.1-25 µM.
Data set [7] has as its target Toll-like receptor 4 (Homo sapiens) (UniProt O00206). The experiment in a line: Activation of TLR4 in PMA-differentiated human THP1-Xblue cells assessed as induction of TNFalpha release at 25 uM incubated for 6 hrs by ELISA method. As to conditions: filed as activator. Type of data set: cell-based.
Data set [8] has the same target. Kind of data set: Activation of TLR4 in PMA-differentiated human THP1-Xblue cells assessed as induction of IL-1beta release incubated for 6 hrs by ELISA method. The class given is cell-based. The note with it: filed as activator, dose 0.1-25 µM.
The test system of the next data set is PBMC. Kind of data set: Cytotoxicity against human PBMC cells assessed as reduction in cell viability at 0.1 to 25 uM incubated for 18 hrs by MTT assay. The class given is toxicity, cell-based. The note with it: dose 0.1-25 µM.
Data set [9] addresses Toll-like receptor 4 (Homo sapiens) (UniProt O00206). Kind of data set: Activation of TLR4 in PMA-differentiated human THP1-Xblue cells assessed as induction of IL-6 secretion at 0.1 to 25 uM by incubated for 6 hrs ELISA method. The note with it: dose 0.1-25 µM. The class given is cell-based.
The target is the same in data set [10]. Kind of data set: Agonist activity at TLR4 in human PBMC assessed as induction of TNF production incubated for 6 hrs by ELISA method. Type of data set: cell-based. As to conditions: filed as agonist, dose 10-25 µM.
Data set [11] shares this target. Kind of data set: Agonist activity at TLR4 in human PBMC assessed as induction of IL-1beta production incubated for 6 hrs by ELISA method. Type of data set: cell-based. As to conditions: filed as agonist, dose 10-25 µM.
The subject of data set [12] is THP1-Xblue. The experiment in a line: Activation of NF-KappaB/AP-1 signalling pathway in PMA-differentiated human THP-1 X-blue cells assessed as induction of SEAP release at 0.1 to 25 uM incubated for 18 hrs by QUANTI-Blue assay. Type of data set: cell-based. The note with it: dose 0.1-25 µM.
Data set [13] has as its target Toll-like receptor 4 (Homo sapiens) (UniProt O00206). The experiment in a line: Activation of TLR4 in PMA-differentiated human THP1-Xblue cells assessed as induction of IL-1beta release at 25 uM by incubated for 6 hrs ELISA method. Type of data set: cell-based. As to conditions: filed as activator.
In data set [14] the test system is THP1-Xblue. The experiment in a line: Activation of NF-kappaB pathway in PMA-differentiated human THP1-Xblue cells assessed p65 translocation from cytosol to nucleus at 25 uM incubated for 4 hrs by immunofluorescence analysis. Type of data set: cell-based.
Data set [15] relates to THP1-Xblue. The experiment in a line: Activation of […] in PMA-differentiated human THP1-Xblue cells assessed as p-IRF3 translocation from cytosol to nucleus at 25 uM measured after 2 to 4 hrs by immunofluorescence analysis. As to conditions: time 2-4 hrs. Type of data set: cell-based.
The target in data set [16] is MAP kinase p38 (Homo sapiens) (UniProt O15264+Q15759+Q16539+P53778). Kind of data set: Activation of p38 MAPK phosphorylation in PMA-differentiated human THP1-Xblue cells at 25 uM incubated for 1.5 to 2.5 hrs by Western blot analysis. The class given is cell-based. As to conditions: filed as activator, time 1.5-2.5 hrs. Background: A western blot detects proteins with antibodies after separation by electrophoresis.

The target of data set [17] is NACHT, LRR and PYD domains-containing protein 3 (Homo sapiens) (UniProt Q96P20). Kind of data set: Activation of NLRP3 inflammasome in PMA-differentiated human THP1-Xblue cells assessed as IL-1beta production at 25 uM preincubated for 1 hr with MCC950 followed by compound addition and measured after 6 hrs by ELISA method. Type of data set: cell-based.
Sequence of NACHT, LRR and PYD domains-containing protein 3 (Homo sapiens) (Q96P20 whole entry, the tested form may be a part): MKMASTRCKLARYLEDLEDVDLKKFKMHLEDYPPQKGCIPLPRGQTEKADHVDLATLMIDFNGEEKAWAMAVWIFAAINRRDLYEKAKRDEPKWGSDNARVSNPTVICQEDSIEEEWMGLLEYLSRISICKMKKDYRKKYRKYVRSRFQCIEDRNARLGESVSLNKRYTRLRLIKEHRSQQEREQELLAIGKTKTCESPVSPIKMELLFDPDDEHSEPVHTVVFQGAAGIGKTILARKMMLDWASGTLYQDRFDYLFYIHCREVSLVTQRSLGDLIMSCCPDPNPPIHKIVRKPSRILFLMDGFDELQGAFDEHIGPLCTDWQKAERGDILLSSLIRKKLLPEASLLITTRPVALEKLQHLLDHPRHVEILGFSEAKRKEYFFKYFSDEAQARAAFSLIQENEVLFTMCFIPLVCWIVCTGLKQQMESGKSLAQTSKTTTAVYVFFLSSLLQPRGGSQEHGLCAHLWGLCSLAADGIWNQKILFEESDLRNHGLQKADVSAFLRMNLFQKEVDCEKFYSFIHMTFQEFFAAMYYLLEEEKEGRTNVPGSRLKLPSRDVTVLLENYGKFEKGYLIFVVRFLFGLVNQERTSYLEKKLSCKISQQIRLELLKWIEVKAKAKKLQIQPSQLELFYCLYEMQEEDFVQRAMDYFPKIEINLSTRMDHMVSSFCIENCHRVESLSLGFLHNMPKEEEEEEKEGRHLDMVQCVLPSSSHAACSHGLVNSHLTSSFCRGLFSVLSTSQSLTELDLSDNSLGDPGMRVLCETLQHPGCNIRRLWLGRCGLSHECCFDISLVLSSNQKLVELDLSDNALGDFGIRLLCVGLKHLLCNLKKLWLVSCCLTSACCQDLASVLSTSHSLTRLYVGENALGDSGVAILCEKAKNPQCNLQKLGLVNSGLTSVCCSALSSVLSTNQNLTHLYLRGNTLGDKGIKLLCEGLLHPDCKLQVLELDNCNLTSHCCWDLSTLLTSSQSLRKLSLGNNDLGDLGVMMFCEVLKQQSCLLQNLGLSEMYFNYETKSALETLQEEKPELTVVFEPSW
The test system of a further data set is RAW-Blue. Kind of data set: Activation of NF-kappaB/AP-1 transcriptional activity in mouse RAW-Blue cells at 0.1 uM incubated for 18 hrs by quanti-blue/SEAP-based spectrophotometry analysis. Type of data set: cell-based. As to conditions: filed as activator.
Data set [18] deals with THP1-Xblue. Kind of data set: Activation of NF-kappaB/AP-1 transcriptional activity in human THP1-Xblue cells at 10 uM incubated for 18 hrs by quanti-blue/SEAP-based spectrophotometry analysis. The class given is cell-based. The note with it: filed as activator.
The subject of data set [19] is Mus musculus. Kind of data set: Immuno-adjuvant activity in OVA immunized C57BL/6J mouse model assessed as increase in anti-OVA IgG antibody at 10 ug, sc administered on day 0 and as booster dose on day 21 and measured on day 42 by ELISA. Type of data set: functional, organism-based. As to conditions: dose 10.0 µg.

Structures are written as SMILES. Activity calls are given as the source filed them. The rule behind the calls is not given here.

Turning to `CCCCCCCCCCCC(=O)N[C@H]1[C@@H](OP(=O)(O)O)O[C@H](CO)[C@@H](OC(=O)CCCCCCCCCCC)[C@@H]1OC(=O)CCCCCCCCCCC`, the result with Mus musculus [1], with Mus musculus [2], in the data set with Mus musculus [3] and with Mus musculus [4] was inactive.
`CCCCCCCCCCCCCC(=O)O[C@H](CCCCCCCCCCC)CC(=O)N[C@H]1[C@H](OC[C@H]2O[C@H](O)[C@H](NC(=O)C[C@H](O)CCCCCCCCCCC)[C@@H](OC(=O)C[C@H](O)CCCCCCCCCCC)[C@@H]2O)O[C@H](CO)[C@@H](OP(=O)(O)O)[C@@H]1OC(=O)C[C@@H](CCCCCCCCCCC)OC(=O)CCCCCCCCCCCCC`: the outcome with HEK-Blue hTLR4 and in the data set with Mus musculus [3] was Active. For the same molecule, in the data set with Mus musculus [2], the outcome was inactive.
Consider `CCCCCCCCCCCC(=O)N[C@H]1[C@H](OC(=O)CCCCCCCCC)O[C@H](CO)[C@@H](OP(=O)([O-])[O-])[C@@H]1OC(=O)CCCCCCCCC.[Na+].[Na+]`, for which the outcome in data set [5] was Active. For the same molecule, the Activity result in data set [6] is reported as “Non-Toxic”.
`CCCCCCCCCCCCCC(=O)O[C@@H]1O[C@H](CO)[C@@H](OP(=O)([O-])[O-])[C@H](OC(=O)CCCCCCCCCCCCC)[C@H]1NC(=O)CCCCCCCCCCC.[Na+].[Na+]`: the outcome in data set [5] and in data set [7] was Active. For the same molecule, the Activity result in data set [8] was “Dose-Dependent Effect”; in the data set with PBMC it was “Non-Toxic”; in data set [6], “Non-Toxic”; in [10], “Dose-Dependent Effect”; in data set [11], “Dose-Dependent Effect”. Further, the outcome in data set [9] was inactive.
Turning to `CCCCCCCCCCCC(=O)N[C@H]1[C@@H](OC(=O)CCCCCCCCCCC)O[C@H](CO)[C@@H](OP(=O)(O)O)[C@@H]1OC(=O)CCCCCCCCCCC`, the result in the data set on THP1-Xblue [12] was inactive.
For the molecule `CCCCCCCCCCCCCC(=O)N[C@H]1[C@H](OC(=O)CCCCCCCCCCCCC)O[C@H](CO)[C@@H](OP(=O)([O-])[O-])[C@@H]1OC(=O)CCCCCCCCCCCCC.[Na+].[Na+]`, the result in data set [5] was Active. For the same molecule, the Activity result in [6] was “Non-Toxic”.
Consider `CCCCCCCCCCCC(=O)N[C@H]1[C@H](OC(=O)CCCCCCCCCCC)O[C@H](CO)[C@@H](OP(=O)([O-])[O-])[C@@H]1OC(=O)CCCCCCCCCCC.[Na+].[Na+]`, for which the result (in data set [5]; in [7]; in [13]; in data set [16]; in the data set on RAW-Blue; in the data set on THP1-Xblue [18]) was Active. Also, the result with Mus musculus [19] and in the data set on Mus musculus [1] was Active. Besides, the Activity entry was “Dose-Dependent Effect” in [8], “Non-Toxic” in the data set with PBMC, “Dose-Dependent Effect” in data set [10] and “Dose-Dependent Effect” in data set [11]. The result (in data set [9]; in the data set with THP1-Xblue [14]; in the data set on THP1-Xblue [15]; in data set [17]; with Mus musculus [2]; with Mus musculus [4]) was inactive.

These data come from ChEMBL document CHEMBL5338725, “New Glucosamine-Based TLR4 Agonists: Design, Synthesis, Mechanism of Action, and In Vivo Activity as Vaccine Adjuvants” (J Med Chem, 2023).
